Patent US20030190289A1, “Formulations containing a glucocorticoid drug for the treatment of bronchopulmonary diseases” (priority 2000, published 2003)

Assays:
[1] = cited from earlier work; for Rank order of topical activity: comparison between rac-BUD and its two epimers, Clissold et al.
[2] = Clissold et al. 1984, Edbäcker et al. 1987; cited from earlier work
[3] = studies in the animals; Clissold et al. 1984, Edbäcker et al. 1987; cited from earlier work
[4] = Solubility in ethanol and ethanol/HFA mixtures; format: physicochemical; details: in ethanol and mixtures containing ethanol and HFA134a or ethanol and HFA227
[5] = Chemical and physical stability in solution; format: physicochemical; details: solution formulations
Protocol: In WO 00/30608 published on Jun.
In the same application, further 22R-BUD solution compositions in HFA 134a or 227 are described whose relevant respirable dose and the respirable fraction have been determined. In these compositions, the concentration of the active ingredient is comprised between 0.06% and 0.14% w/v equivalent to single doses of w 60, 63 and 70 μg, respectively. However, although said formulations give rise to good performances in term of respirable fraction due to the low amount of ethanol, the polarity of the whole solvent system constituted of 7-8% w/w of ethanol and 0.9% w/w of isopropyl myristate or PEG 400 is too low, leading to physical stability problem, i.e. partial precipitation of the active ingredient, after storage under stress conditions.

[6] = HFA propellant containing ethanol and optionally a low volatility component; inhalers with internal surface of stainless steel, anodized aluminum or epoxy phenol resin lining; WO 00/30608; cited from earlier work
[7] = Pharmacokinetic and metabolic profile / systemic exposure of the epimers; format: in vivo; details: studies carried out by the applicant

Row | Structure (SMILES) | Rank order of topical activity [1] | Pharmacokinetic and metabolic profile versus (22S) epimer [2] | Potency relative to the corresponding (22S) epimer [3] | Solubility versus corresponding epimer [4] | Chemical degradation tendency versus corresponding epimer [5] | Stability in solution [6] | Systemic exposure versus corresponding epimer [7] | Ratio of topical to systemic activity ([1]; compared with other corticosteroids)
1 | CCCC1OC2CC3C4CCC5=CC(=O)C=CC5(C)C4C(O)CC3(C)C2(C(=O)CO)O1 (stereo not shown) [Composition 22S] | 22R >rac-BUD >22S | – | – | – | – | – | – | –
2 | CCC[C@@H]1O[C@@H]2C[C@H]3[C@@H]4CCC5=CC(=O)C=C[C@]5(C)[C@H]4[C@@H](O)C[C@]3(C)[C@]2(C(=O)CO)O1 [Composition 22R-BUD, (22R)-budesonide] | 22R >rac-BUD >22S | different pharmacokinetic and metabolic profile | 2 to 3 times | significantly less soluble than its corresponding epimer | higher tendency to exhibit chemical degradation than its corresponding epimer | stable in solution | different from that of its corresponding epimer | –
3 | CCCC1O[C@@H]2C[C@H]3[C@@H]4CCC5=CC(=O)C=C[C@]5(C)[C@H]4[C@@H](O)C[C@]3(C)[C@]2(C(=O)CO)O1 (mixture of isomers) [rac-BUD, Budesonide] | 22R >rac-BUD >22S | – | – | – | – | – | – | high ratio of topical to systemic activity
